Reference: US20240067603A1, “CUBANYL BIGUANIDE COMPOUNDS” (REGENTS OF THE UNIVERSITY OF MINNESOTA, priority 2020, published 2024)
Where two headings read alike, the source gives them in different places.

How the values were obtained:
[1] = Microsomal stability, human liver microsomes; type: in vitro ADME; conditions: for parent metabolite peak area after 60 min: 10 μM, human liver microsomes 1 mg/mL, NADPH 2 mM, 37° C.; for degradation pathways: human or mouse liver microsomes
Description: (§1) Microsomal stability of HBB and HCB were evaluated in human and mouse liver microsomes. 10 μM of HBB or HCB was tested in a biological matrix comprising of human or mouse liver microsomes (1 mg/mL) (Table 6). NADPH (2mM) was added as a cofactor. Total volume was 200 μL.
(§2) HBB or HCB was incubated for 0, 30, or 60 min at 37° C. Incubations were quenched with 2 volumes of acetonitrile followed by centrifugation for 10 min at 16,000 g.

SARS-CoV-2 [2] = experiment: microbe, parasite or virus in culture; type: cell-based; conditions: Severe acute respiratory syndrome coronavirus 2, 293T/ACE2, FIG. 12; for IC50: read-out: antiviral IC50; for IC90: read-out: antiviral IC90
mm001 = experiment: Inhibition of mammary carcinoma cell line mm001; type: cell-based, mouse (C57BL/6); conditions: Mus musculus, read-out: IC50 (uM), mm001
Description: (§3) 3-(4,5-Dimethylthiazol-2-yl)-2,5-diphenyltetrazolium Bromide (MTT) Cell Proliferation Assay. To cells grown in 96-well-tissue culture plate, 20 μl/well of MTT solution (5 mg/ml in PBS) was added. After 1-2 hours incubation at 37° C., the plate was centrifuged. Supernatant was discarded and 100 μl DMSO was added to dissolve water insoluble formazan, and the absorbance was read at 540 nm with a plate reader.

MCF-7 cells = experiment: MTT cell proliferation assay, MCF-7; type: cell-based, human; conditions: MCF7
Description: FIG. 8. Effects of HCB on the proliferation of MCF-7 cells. MCF-7 cells were seeded in 96 well plates and treated with drugs at varied concentration for 24 hours. MTT assay was performed to determine remaining viable cells in each well. Results are represented as mean±S.D. (n=7). IC50 was determined by curve fitting.
as §3

mm006 = experiment: Inhibition of mammary carcinoma cell line mm006; type: cell-based, mouse (C57BL/6); conditions: Mus musculus, read-out: IC50 (uM), mm006
Description: as §3

BT474 = experiment: Inhibition of mammary carcinoma cell line BT474; type: cell-based; conditions: BT-474; Table 5; BT474, human, ERα+, HER2+
Description: as §3

LR/FR/PR MCF7A1C cells = experiment: Crystal violet cell proliferation assay, LR,FR,PR-MCF7AC1; type: cell-based; conditions: Homo sapiens, read-out: IC50, LR/FR/PR MCF7A1C cells
Description: Cell proliferation assay: The cells mentioned in this study were seeded in 96 wells-plates (2000-4000 cells/well) and treated 24 hours later with DMSO (vehicle control), HCB or HBB drugs at the indicated concentrations. […] The CV stained plates were solubilized in 100 mM sodium citrate in 50% ethanol solution and absorbance of the stain measured at 550 nm using a plate reader. Each data point represents mean±SD, obtained from six wells per treatment performed in biological triplicates.

SARS-CoV-2 [3] = experiment: SARS-CoV-2 antiviral assay in Vero cells; type: cell-based; conditions: Severe acute respiratory syndrome coronavirus 2, Vero cells, FIG. 11; for IC50: read-out: antiviral IC50; for IC90: read-out: antiviral IC90
[4] = Microsomal stability, mouse liver microsomes; type: in vitro ADME; conditions: 10 μM, mouse liver microsomes 1 mg/mL, NADPH 2 mM, 37° C.
Description: as §1, §2

MCF10A cells = experiment: Crystal violet cell proliferation assay, MCF10A; type: cell-based; conditions: Homo sapiens, MCF-10A, 72 hours
Description: Cell proliferation assay: The cells mentioned in this study were seeded in 96 wells-plates (2000-4000 cells/well) and treated 24 hours later with DMSO (vehicle control), HCB or HBB drugs at the indicated concentrations. 72 hours later, the cells were fixed in situ with 25% (v/v) glutaraldehyde, followed by staining with 0.52% crystal violet (CV) in 25% methanol (Fisher Chemical). The CV stained plates were solubilized in 100 mM sodium citrate in 50% ethanol solution and absorbance of the stain measured at 550 nm using a plate reader. Each data point represents mean±SD, obtained from six wells per treatment performed in biological triplicates. All reagents were from Sigma-Aldrich unless otherwise stated.

MCF-7 tumors = experiment: MCF-7 ER+ mammary tumor model; type: in vivo, mice
Vero cells = experiment: Cytotoxicity assay in Vero cells
CYP3A4 = CYP3A4 (Homo sapiens, UniProt P08684); experiment: Midazolam hydroxylation by CYP3A4 in Nanodiscs; type: biochemical
CYP3A4, sequence (P08684 whole entry): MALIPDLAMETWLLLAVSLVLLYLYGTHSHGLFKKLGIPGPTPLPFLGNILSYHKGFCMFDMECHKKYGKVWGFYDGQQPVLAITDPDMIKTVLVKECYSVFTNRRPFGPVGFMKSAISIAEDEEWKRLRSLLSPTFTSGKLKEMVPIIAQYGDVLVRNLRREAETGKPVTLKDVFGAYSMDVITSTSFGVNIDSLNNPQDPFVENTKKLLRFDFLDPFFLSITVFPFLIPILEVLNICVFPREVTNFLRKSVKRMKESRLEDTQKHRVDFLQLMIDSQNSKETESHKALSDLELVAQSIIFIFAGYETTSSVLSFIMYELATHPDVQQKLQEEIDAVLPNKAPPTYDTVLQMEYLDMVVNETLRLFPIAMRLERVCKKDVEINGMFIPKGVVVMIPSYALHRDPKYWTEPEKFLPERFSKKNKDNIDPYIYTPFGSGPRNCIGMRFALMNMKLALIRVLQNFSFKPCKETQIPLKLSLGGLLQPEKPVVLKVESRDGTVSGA
Description: Titration of ˜6 uM CYP3A4 in POPC Nanodiscs was done using 16 mM stock solution obtained by 6-fold dilution of the original 100 mM DMSO solution in methanol. Aliquots of 0.1-0.2 μL were added to 120 μL solution of CYP3A4-ND in semi-micro cell (10 mm pathlength). Spectra with background corrected for scattering are shown in FIG. 17, and titration data points in FIG. 18.
These concentrations were selected based on IC50 for arachidonic acid metabolism mentioned in the first e-mail (low HCB concentration) and on our titration results. We used seven MDZ concentrations and measured both 1 OH and 4 OH hydroxy-MDZ products using HPLC with absorbance detection at 240 nm. Results are shown below in FIG. 19.

[5] = Table 5, MCF-7, human, ERα+, HER2−, read-out: IC50 (uM), MCF-7

SMILES: CCCCCCNC(=N)NC(=N)NCc1ccccc1 [HBB, N1-hexyl-N5-benzyl-biguanide]
- parent metabolite peak area after 60 min [1]: 19.19%
- degradation pathways [1]: oxidation, dehydrogenation, and glucuronidation
- IC50 (SARS-CoV-2 [2]): 0.82 µM
- IC90 (SARS-CoV-2 [2]): 11.3 µM
- IC50 (mm001): 26.8 µM
- IC50 (MCF-7 cells; [5]): 22.2 µM
- IC50 (mm006): 38.5 µM
- IC50 (BT474): 23.2 µM
- IC50 (LR/FR/PR MCF7A1C cells; 72 h): 4.9 µM
- IC50 (SARS-CoV-2 [3]): > 20 µM
- IC90 (SARS-CoV-2 [3]): > 20 µM
- parent metabolite peak area after 60 min [4]: 8.95%
- IC50 (MCF10A cells): 5.2 µM
- tumor control (MCF-7 tumors; subcutaneous route at the MTD, compared with other route): equally effective
- oxidative phosphorylation in ER+/HER2− MCF-7 tumors (MCF-7 tumors; subcutaneous, MTD): inhibit oxidative phosphorylation
- CC10 (Vero cells): 0.091 µM

SMILES: CCCCCCNC(=N)NC(=N)NCC12C3C4C5C3C1C5C42 (stereo not drawn) [HCB, Hexyl Cubanomethyl Biguanide]
- parent metabolite peak area after 60 min [1]: 48.18%
- degradation pathways [1]: oxidation, dehydrogenation, and hydrogenation
- IC50 (SARS-CoV-2 [2]): 0.7 µM
- IC90 (SARS-CoV-2 [2]): 4.8 µM
- IC50 (mm001; Table 5, mm001, C57BL/6, Basal): 12.1 µM
- IC50 (MCF-7 cells; Homo sapiens, MTT, 24 hours treatment, curve fitting, read-out: IC50, proliferation of MCF-7 cells): 8.4 ± 1.2 µM
- IC50 (MCF-7 cells; [5]): 8.4 µM
- IC50 (mm006; Table 5, mm006, C57BL/6, Basal): 16.9 µM
- IC50 (BT474): 10.9 µM
- IC50 (LR/FR/PR MCF7A1C cells; letrozole-, fulvestrant- and palbociclib-resistant, 72 hours, crystal violet): 1.7 µM
- IC50 (SARS-CoV-2 [3]): 15.6 µM
- IC90 (SARS-CoV-2 [3]): 19.6 µM
- parent metabolite peak area after 60 min [4]: 18.63%
- IC50 (MCF10A cells): 2.5 µM
- inhibition of MDZ hydroxylation (CYP3A4; 5.9 uM HCB, CYP3A4 Nanodiscs): Significant inhibition
- effect on the 1 OH/4 OH ratio of MDZ hydroxylation (CYP3A4; 64 uM HCB): clear and reproducible effect
- CC10 (Vero cells): 0.201 µM
